Test results reported in ChEMBL document CHEMBL3871268, “Chalcogen containing heterocyclic scaffolds: New hybrids with antitumoral activity” (Eur J Med Chem, 2016).

Experiments:
[1] = Cell cycle analysis in human MCF7 cells assessed as accumulation at SubG1 phase at 50 uM measured after 4 hrs by propidium iodide staining-based flow cytometry (reference value: 5.6%); assay type: functional
[2] = Cell cycle analysis in human MCF7 cells assessed as accumulation at G0/G1 phase at 50 uM measured after 48 hrs by propidium iodide staining-based flow cytometry (reference value: 72.1%); assay type: functional
[3] = Cell cycle analysis in human MCF7 cells assessed as accumulation at G0/G1 phase at 50 uM measured after 24 hrs by propidium iodide staining-based flow cytometry (reference value: 72.1%); assay type: functional
[4] = Cell cycle arrest in human MCF7 cells assessed as M1 quadrant cells at 50 uM measured after 48 hrs by propidium iodide staining-based flow cytometry (reference value: 98.1%); assay type: functional
[5] = Cell cycle analysis in human MCF7 cells assessed as accumulation at G2/M phase at 50 uM measured after 8 hrs by propidium iodide staining-based flow cytometry (reference value: 8.5%); assay type: functional
[6] = Cell cycle analysis in human MCF7 cells assessed as accumulation at S phase at 50 uM measured after 24 hrs by propidium iodide staining-based flow cytometry (reference value: 13.2%); assay type: functional
[7] = Cell cycle analysis in human MCF7 cells assessed as accumulation at SubG1 phase at 50 uM measured after 48 hrs by propidium iodide staining-based flow cytometry (reference value: 5.6%); assay type: functional
[8] = Cell cycle analysis in human MCF7 cells assessed as accumulation at SubG1 phase at 50 uM by propidium iodide staining-based flow cytometry; assay type: functional; conditions: TDE = time-dependent effect
[9] = Cell cycle analysis in human MCF7 cells assessed as accumulation at G2/M phase at 50 uM measured after 48 hrs by propidium iodide staining-based flow cytometry (reference value: 8.5%); assay type: functional
[10] = Cell cycle arrest in human MCF7 cells assessed as sub-diploid cells at 50 uM measured after 48 hrs by propidium iodide staining-based flow cytometry (reference value: 1.9%); assay type: functional
[11] = Cell cycle analysis in human MCF7 cells assessed as accumulation at G2/M phase at 50 uM measured after 4 hrs by propidium iodide staining-based flow cytometry (reference value: 8.5%); assay type: functional
[12] = Cell cycle analysis in human MCF7 cells assessed as accumulation at G0/G1 phase at 50 uM measured after 4 hrs by propidium iodide staining-based flow cytometry (reference value: 72.1%); assay type: functional
[13] = Cell cycle analysis in human MCF7 cells assessed as accumulation at S phase at 50 uM measured after 8 hrs by propidium iodide staining-based flow cytometry (reference value: 13.2%); assay type: functional
MCF7 = assay: Selectivity index, ratio of GI50 for human 184B5 cells to GI50 for human MCF7 cells; assay type: functional
[14] = Cell cycle analysis in human MCF7 cells assessed as accumulation at G0/G1 phase at 50 uM measured after 16 hrs by propidium iodide staining-based flow cytometry (reference value: 72.1%); assay type: functional
[15] = Cytotoxicity against human 184B5 cells assessed as reduction in cell viability measured after 72 hrs by MTT assay; assay type: toxicity, cell-based
[16] = Cell cycle analysis in human MCF7 cells assessed as accumulation at SubG1 phase at 50 uM measured after 8 hrs by propidium iodide staining-based flow cytometry (reference value: 5.6%); assay type: functional
[17] = Cell cycle analysis in human MCF7 cells assessed as accumulation at G2/M phase at 50 uM measured after 24 hrs by propidium iodide staining-based flow cytometry (reference value: 8.5%); assay type: functional
[18] = Cell cycle analysis in human MCF7 cells assessed as accumulation at SubG1 phase at 50 uM measured after 24 hrs by propidium iodide staining-based flow cytometry (reference value: 5.6%); assay type: functional
[19] = Cell cycle analysis in human MCF7 cells assessed as accumulation at G2/M phase at 50 uM measured after 16 hrs by propidium iodide staining-based flow cytometry (reference value: 8.5%); assay type: functional
[20] = Cell cycle arrest in human MCF7 cells assessed as M1 quadrant cells at 50 uM pretreated with pan-caspase inhibitor Z-VAD-FMK for 1 hr followed by compound addition measured after 48 hrs by propidium iodide staining-based flow cytometry assay (reference value: 98.1%); assay type: functional; set-up: scale not given: the % may be the effect or the level left
[21] = Cell cycle analysis in human MCF7 cells assessed as accumulation at S phase at 50 uM measured after 48 hrs by propidium iodide staining-based flow cytometry (reference value: 13.2%); assay type: functional
[22] = Cytotoxicity against human PC3 cells assessed as reduction in cell viability measured after 72 hrs by MTT assay; assay type: functional; conditions: PC-3, 72 h
[23] = Cell cycle analysis in human MCF7 cells assessed as accumulation at G0/G1 phase at 50 uM measured after 8 hrs by propidium iodide staining-based flow cytometry (reference value: 72.1%); assay type: functional
[24] = Cell cycle analysis in human MCF7 cells assessed as accumulation at S phase at 50 uM measured after 16 hrs by propidium iodide staining-based flow cytometry (reference value: 13.2%); assay type: functional
[25] = Cell cycle analysis in human MCF7 cells assessed as accumulation at SubG1 phase at 50 uM measured after 16 hrs by propidium iodide staining-based flow cytometry (reference value: 5.6%); assay type: functional
[26] = Cytotoxicity against human MCF7 cells assessed as reduction in cell viability measured after 72 hrs by MTT assay; assay type: functional; conditions: MCF7, 72 h
[27] = Cell cycle arrest in human MCF7 cells assessed as sub-diploid cells at 50 uM pretreated with autophagy inhibitor wortmannin for 1 hr followed by compound addition measured after 48 hrs by propidium iodide staining-based flow cytometry assay (reference value: 1.9%); assay type: functional; set-up: scale not given: the % may be the effect or the level left
[28] = Cell cycle analysis in human MCF7 cells assessed as accumulation at S phase at 50 uM measured after 4 hrs by propidium iodide staining-based flow cytometry (reference value: 13.2%); assay type: functional
[29] = Cell cycle arrest in human MCF7 cells assessed as sub-diploid cells at 50 uM pretreated with pan-caspase inhibitor Z-VAD-FMK for 1 hr followed by compound addition measured after 48 hrs by propidium iodide staining-based flow cytometry assay (reference value: 1.9%); assay type: functional; set-up: scale not given: the % may be the effect or the level left
[30] = Cell cycle arrest in human MCF7 cells assessed as M1 quadrant cells at 50 uM pretreated with autophagy inhibitor wortmannin for 1 hr followed by compound addition measured after 48 hrs by propidium iodide staining-based flow cytometry assay (reference value: 98.1%); assay type: functional; set-up: scale not given: the % may be the effect or the level left

N#C[Se]Cc1ccc(-n2cccc2)cc1
Activity [1]: 2.2% | Activity [2]: 53.6% | Activity [3]: 55.7% | Activity [4]: 67.8% | Activity [5]: 18.4% | Activity [6]: 17.2% | Activity [7]: 25.2% | Activity [8]: Tde | Activity [9]: 10.3% | Activity [10]: 32.2% | Activity [11]: 18.7% | Activity [12]: 59.6% | Activity [13]: 17.8% | RatioGI50 (MCF7): >41.8 | Activity [14]: 53.7% | GI50 at 72 h ([15]; 184B5 cells): > 100 µM | LC50 ([15]; 184b5, 72 h): > 100 µM | TGI ([15]; 184b5, 72 h): > 100 µM | Activity [16]: 2.9% | Activity [17]: 14% | Activity [18]: 13.1% | Activity [19]: 17.2% | Activity [20]: 81.7% | Activity [21]: 9.1% | GI50 [22]: 59.9 µM | LC50 (concentration lethal to 50% of cells) [22]: > 100 µM | TGI [22]: > 100 µM | Activity [23]: 61.4% | Activity [24]: 17.6% | Activity [25]: 9.4% | GI50 [26]: 2.4 µM | LC50 [26]: > 100 µM | TGI [26]: > 100 µM | Activity [27]: 30.8% | Activity [28]: 19.3% | Activity [29]: 18.2% | Activity [30]: 69.2%
